US20190106460A1, “BINDING INHIBITORS OF THE BETA. TRANSDUCIN REPEAT-CONTAINING PROTEIN” (priority 2011, published 2019)
Entries after “also recorded” stand apart in the source; their conditions may differ. Non-standard residues stand in square brackets, D forms with d. Residues, ends and D or L forms follow the SMILES beside them. *: point of attachment. Benzenesulfonyl(4-OMe) = COc1ccc(S(=O)(=O)*)cc1; Arachidoyl = CCCCCCCCCCCCCCCCCCCC(=O)*; Phe(3-F) = N[C@@H](Cc1cccc(F)c1)C(=O)O; Stearoyl = CCCCCCCCCCCCCCCCCC(=O)*; Tos = Cc1ccc(S(=O)(=O)*)cc1; Ahx = NCCCCCC(=O)O

Experiments:
Type in all cases: cell-based
PDCD4 in MCF7 cells [1] = test: In-cell western assay for PDCD4 accumulation; details: MCF7, treatment with cell permeable compound
Protocol: In-Cell Western Assay for PDCD4 Accumulation.
To measure this an in-cell western assay was used and the peptidomimetics were delivered to the cells by nucleofection.
MCF7 cells were grown in 10 cm dishes in 10 ml DMEM+10% FBS and 1% Pen/Strep at 37° C./5% CO2. On the day of nucleofection, the dish was washed with 90% confluent MCF7 cells with 5 ml PBS, then 3 ml of Trypsin/EDTA was added and incubated at 37° C./5% CO2 for approximately 5 mins until the cells detached from the plastic. 7 ml of normal growth media was added and the number of cells present was counted using a haemocytometer.
The cells were centrifuged cells at 90 g for 10 mins at RT and the supernatant was removed. 100 μl of Nucleofection Buffer V+ Supplement was added (Lonza Biologics Cat no VCA-1003) per 8×10^5 cells, and the cells were added to peptidomimetics dissolved in <3% DMSO.
The cell/peptidomimetic mix was added to cuvettes supplied for the nucleofector and the sample was nucleofected using the recommended MCF7 programme for high cell viability (i.e. E-014). 500 μl of TPA (12-O-tetradecanoylphorbol-13-acetate)-supplemented growth media (i.e. DMEM/10% FBS/1% Pen-Strep/10 nM TPA) was added to the cuvette and 100 μl of this solution was transferred to a well of a 96 well plate and incubated at 37° C./5% CO2 for 8 hours.
The celled were fixed by removing the growth media, adding 3.7% Formaldehyde in PBS and incubating at RT for 20 mins. The plate was washed three times in PBS. And the cells were permeabilised by washing 5× for 5 mins each in PBS+0.1% Triton X-100.
The cells were blocked by adding 3% BSA in PBS-Tween to the cells and incubating at RT for 1.5 hours. An anti-PDCD4 antibody (Abcam cat no: ab80590) was added at a concentration of 1:1000 in 3% BSA in PBS-T (50 ul/well) and incubated at RT for 2.5 hours. The cells were washed 5× for 5 mins each with PBS-T before the secondary antibody (LiCor Biosciences Donkey Anti-Rabbit IRDye 800CW cat no 926-32213) was added at a concentration of 1:1000, along with the DNA stain DRAQ5 at a concentration of 1:10000, in 3% BSA in PBS-T (50 ul/well) and incubated at RT for 1 hour, protected from light.
The cells were washed cells 5× for 5 mins each with PBS-T and all the liquid was removed from the wells before the plate was read on the LiCor Biosciences Odyssey at 700 nm and 800 nm. The reading was normalised in the 800 nm channel to that in the 700 nm channel. The data are shown in FIG. 12, where DMSO was used as a negative control and 20 μM MG132 was used as a positive control. The data is presented as percentage activity with DMSO=0% and […]=100% activity. Error bars represent standard deviation from 3 replicates.
The compounds shown in FIGS. 14A-14B were synthesised to improve cell permeability. […] FIG. 16 compares the round II compounds (shown in FIGS. 14A-14B) with UBP036 in this assay. […] Inhibition of βTrCP, which is responsible for the degradation of both PDCD4 and β-catenin, causes a concomitant stabilisation and accumulation of levels of these proteins which can be measured by in cell western assay.

PDCD4 in MCF7 cells [2] = test: Traditional western blot for PDCD4, MCF7
Text: […]

PDCD4 in LNCaP cells = test: Traditional western blot for PDCD4, LNCaP
Text: […]

LNCaP (prostate cancer) = test: xCELLigence cell viability / proliferation, LNCaP
Protocol: Example 9—Cell Based Activity of Cell Permeable Compounds on the xCELLigence Platform
The effects of the compounds shown in FIGS. 14A-14B were tested on cancer cell lines MCF7 (breast cancer) and LNCaP (prostate cancer) using the xCELLigence platform (http://www.roche-applied-science.com/sis/xcelligence/ezhome.html). This method of measuring cell viability via measuring cell index is known in the art.
Different doses of the compounds were tested on MCF7 cells to see if there would be an effect on their cell viability.
The control compound was compared to its partner active compound (UBP037).
(§1) xCELLigence Method • Before starting the experiment add 50 μL of medium (RPMI 1640, 10% fetal bovine serum, 100 units/mL penicillin, 100 ug/mL streptomycin, and 2 mmol/L glutamine, all from GIBCO) to each well of 96 well E-plate (Roche) and place the plate in the xCELLigence platform to measure the background. • LNCaP/PNT-1 cells are seeded (LNCaPs 80000 cells/well; PNT1 3000 cells/well) in the plate in complete medium and equilibrated for 60 mins at RT before returning to the xCELLigence platform and incubating at 37° C./5% CO2. • 24 hrs after seeding, remove 100 μL of medium was removed from each well and cells were treated with compounds or DMSO diluted in 100 μL of OptiMEM (GIBCO). • Replace the plate in the xCELLigence platform • Cells growth can then be monitored in real-time by the cell index profile on the xCELLigence readout screen • Cell growth can be expressed as normalized cell index and doubling time/slope calculated using the RTCA software.

PNT-1 cell line = test: xCELLigence cell growth, non-malignant PNT-1
Protocol: as §1
The susceptibility of cancer cell lines versus non-cancer cell lines following treatment with the compounds was also investigated.

SMILES | accumulation of PDCD4, in cell western (PDCD4 in MCF7 cells [1]) | PDCD4 accumulation, traditional western blot (PDCD4 in MCF7 cells [2]) | PDCD4 accumulation, traditional western blot (PDCD4 in LNCaP cells) | cell growth / proliferation, xCELLigence (LNCaP (prostate cancer)) | cell growth, xCELLigence (PNT-1 cell line)
CCCCCCCCCCCCCCCCCC(=O)NCCCC[C@H](NC(=O)CCCCCNC(=O)[C@H](CCC(=O)O)NC(=O)[C@H](Cc1c[nH]c2ccccc12)NC(=O)[C@H](Cc1cccc(F)c1)NC(=O)CNC(=O)[C@H](CCC(=O)O)NC(=O)[C@@H](CC(=O)O)NS(=O)(=O)c1ccc(OC)cc1)C(N)=O [UBP037, 4-(MeO)PhSO2-dEGF(3F)WE-Ahx-K(NHCOC17H35)-NH2] ({Benzenesulfonyl(4-OMe)}-[dD]EG[Phe(3-F)]WE[Ahx]K(Stearoyl)-NH2) | inconclusive results | exhibited cellular activity | exhibited cellular activity | inhibit the growth; also recorded: severely restricts the proliferation | far less effect
CCCCCCCCCCCCCCCCCC(=O)NCCCC[C@H](NC(=O)CCCCCNC(=O)[C@H](Cc1c[nH]c2ccccc12)NC(=O)CNC(=O)[C@H](CCC(=O)O)NC(=O)[C@H](Cc1ccccc1)NC(=O)[C@@H](CC(=O)O)NC(=O)[C@H](CCC(=O)O)NS(=O)(=O)c1ccc(C)cc1)C(N)=O [Ts-EdFEGW-Ahx-K(Stearic)-NH2, reference compound] (Tos-E[dD]FEGW[Ahx]K(Stearoyl)-NH2) |  |  |  | levels of cell proliferation similar to that seen with DMSO | 
CCCCCCCCCCCCCCCCCCCC(=O)NCCCC[C@H](NC(=O)CCCCCNC(=O)[C@H](CCC(=O)O)NC(=O)[C@H](Cc1c[nH]c2ccccc12)NC(=O)[C@H](Cc1cccc(F)c1)NC(=O)CNC(=O)[C@H](CCC(=O)O)NC(=O)[C@@H](CC(=O)O)NS(=O)(=O)c1ccc(OC)cc1)C(N)=O [UBP038, 4-(MeO)PhSO2-dEGF(3F)WE-Ahx-K(NHCOC19H39)-NH2] ({Benzenesulfonyl(4-OMe)}-[dD]EG[Phe(3-F)]WE[Ahx]K(Arachidoyl)-NH2) | inconclusive results | exhibited cellular activity | exhibited cellular activity | inhibit the growth | far less effect
